Earlier results as cited in US8765768B2, “Heterocyclic compounds and their uses” (Amgen Inc., priority 2010, dated 2014).

Assays:
[1] = test system: protein kinases
[2] = test system: ovalbumin-induced airway inflammation
[3] = molecular target: T1, p110δ (Homo sapiens, UniProt O00329)
T1 sequence (O00329 1-1044): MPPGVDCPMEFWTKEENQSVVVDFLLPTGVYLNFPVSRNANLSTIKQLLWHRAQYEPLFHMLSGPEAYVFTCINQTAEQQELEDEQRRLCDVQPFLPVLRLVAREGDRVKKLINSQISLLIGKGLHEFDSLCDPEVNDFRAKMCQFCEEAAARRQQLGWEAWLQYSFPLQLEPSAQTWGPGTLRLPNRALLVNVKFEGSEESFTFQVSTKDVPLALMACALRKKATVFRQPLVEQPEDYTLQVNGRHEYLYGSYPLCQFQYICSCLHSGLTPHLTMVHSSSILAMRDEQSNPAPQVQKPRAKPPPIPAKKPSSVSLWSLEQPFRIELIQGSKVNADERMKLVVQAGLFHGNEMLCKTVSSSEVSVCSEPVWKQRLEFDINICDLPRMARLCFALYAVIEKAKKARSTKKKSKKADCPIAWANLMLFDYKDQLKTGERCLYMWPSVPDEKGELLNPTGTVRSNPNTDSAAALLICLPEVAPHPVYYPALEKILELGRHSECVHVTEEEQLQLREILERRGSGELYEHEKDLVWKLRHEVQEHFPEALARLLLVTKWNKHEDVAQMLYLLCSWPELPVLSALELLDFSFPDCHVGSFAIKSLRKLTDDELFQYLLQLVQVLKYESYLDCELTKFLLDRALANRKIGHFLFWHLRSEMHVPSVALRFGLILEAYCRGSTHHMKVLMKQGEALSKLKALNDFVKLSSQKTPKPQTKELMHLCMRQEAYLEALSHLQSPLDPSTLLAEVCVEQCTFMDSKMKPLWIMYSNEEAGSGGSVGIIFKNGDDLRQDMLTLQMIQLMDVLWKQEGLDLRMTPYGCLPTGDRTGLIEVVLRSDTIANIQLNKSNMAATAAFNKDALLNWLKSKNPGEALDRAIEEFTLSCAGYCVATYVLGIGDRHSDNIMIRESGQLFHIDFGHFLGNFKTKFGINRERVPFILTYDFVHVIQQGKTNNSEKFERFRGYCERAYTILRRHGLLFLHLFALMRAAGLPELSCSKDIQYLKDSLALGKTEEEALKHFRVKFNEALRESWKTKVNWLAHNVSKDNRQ

[4] = test system: mouse model of rheumatoid arthritis; details: in vivo
[5] = test system: model of systemic lupus erythematosis; details: in vivo

| SMILES | activity against any protein kinases tested [1] | inflammation and disease in a murine model of asthma [2] | inhibits p110δ [3] | efficacy in a mouse model of rheumatoid arthritis [4] | onset of disease in a model of systemic lupus erythematosis [5] |
| --- | --- | --- | --- | --- | --- |
| Cc1ccccc1-n1c(Cn2cnc3c(N)ncnc32)nc2cccc(C)c2c1=O [IC87114] | no activity | significantly ameliorate inflammation and disease | high nanomolar range (triple digit) | – | – |
| O=C1NC(=O)/C(=C\c2ccc3nccnc3c2)S1 [AS 605240] | – | – | – | efficacious | delay onset of disease |
